Laboratory results: PubChem BioAssay (NCI)
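Values below derive from 48-hour exposures of cells grown in 96-well plates, with endpoints linearly interpolated between the two concentrations bracketing the appropriate inhibition level. Abbreviation: GI50, concentration required for 50% inhibition of growth. At the TGI there is no net growth.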

How the values were obtained:
Test in all cases: NCI-60 cell line screen, 48 h
HS 578T breast = test system: HS 578T breast
HCT-15 colon = test system: HCT-15 colon
EKVX NSCLC = test system: EKVX NSCLC
U251 CNS = test system: U251 CNS
NCI-H522 lung = test system: NCI-H522 lung
RPMI-8226 leukemia = test system: RPMI-8226 leukemia
SK-MEL-5 melanoma = test system: SK-MEL-5 melanoma
SF-268 CNS = test system: SF-268 CNS
OVCAR-5 ovarian = test system: OVCAR-5 ovarian
ACHN renal = test system: ACHN renal
UACC-62 melanoma = test system: UACC-62 melanoma
T-47D breast = test system: T-47D breast
HOP-62 NSCLC = test system: HOP-62 NSCLC
OVCAR-8 ovarian = test system: OVCAR-8 ovarian
IGROV1 ovarian = test system: IGROV1 ovarian
UO-31 renal = test system: UO-31 renal
NCI/ADR-RES ovarian = test system: NCI/ADR-RES ovarian
OVCAR-3 ovarian = test system: OVCAR-3 ovarian
COLO 205 colon = test system: COLO 205 colon
SR leukemia = test system: SR leukemia
LOX IMVI melanoma = test system: LOX IMVI melanoma
SN12C renal = test system: SN12C renal
MALME-3M melanoma = test system: MALME-3M melanoma
MDA-MB-468 breast = test system: MDA-MB-468 breast
BT-549 breast = test system: BT-549 breast
SW-620 colon = test system: SW-620 colon
MCF7 breast = test system: MCF7 breast
HT29 colon = test system: HT29 colon
CCRF-CEM leukemia = test system: CCRF-CEM leukemia
786-0 renal = test system: 786-0 renal
SF-295 CNS = test system: SF-295 CNS
CAKI-1 renal = test system: CAKI-1 renal
PC-3 prostate = test system: PC-3 prostate
HCC-2998 colon = test system: HCC-2998 colon
MDA-MB-435 = test system: MDA-MB-435
SF-539 CNS = test system: SF-539 CNS
MDA-MB-231 breast = test system: MDA-MB-231 breast
A498 renal = test system: A498 renal
SK-MEL-28 melanoma = test system: SK-MEL-28 melanoma
NCI-H23 lung = test system: NCI-H23 lung
SK-MEL-2 melanoma = test system: SK-MEL-2 melanoma
NCI-H226 lung = test system: NCI-H226 lung
KM12 colon = test system: KM12 colon
SK-OV-3 ovarian = test system: SK-OV-3 ovarian
A549 NSCLC = test system: A549 NSCLC
UACC-257 melanoma = test system: UACC-257 melanoma
TK-10 renal = test system: TK-10 renal
OVCAR-4 ovarian = test system: OVCAR-4 ovarian
SNB-19 CNS = test system: SNB-19 CNS
RXF 393 renal = test system: RXF 393 renal
DU-145 prostate = test system: DU-145 prostate

## CCN1CCN(Cc2ccc(C(=O)Nc3cccc(C#Cc4cccc5[nH]nc(N)c45)c3)cc2C(F)(F)F)CC1
HS 578T breast
  GI50: 2140 nM
  TGI: 6.68 µM
HCT-15 colon
  GI50: 721 nM
  TGI: 2020 nM
EKVX NSCLC
  GI50: 1350 nM
  TGI: 2790 nM
U251 CNS
  GI50: 1510 nM
  TGI: 2850 nM
NCI-H522 lung
  GI50: 1100 nM
  TGI: 2400 nM
RPMI-8226 leukemia
  GI50: 1590 nM
  TGI: 3.92 µM
SK-MEL-5 melanoma
  GI50: 1540 nM
  TGI: 2900 nM
SF-268 CNS
  GI50: 1430 nM
  TGI: 3.33 µM
OVCAR-5 ovarian
  GI50: 1470 nM
  TGI: 3.03 µM
ACHN renal
  GI50: 598 nM
  TGI: 1870 nM
UACC-62 melanoma
  GI50: 1320 nM
  TGI: 2620 nM
T-47D breast
  GI50: 2250 nM
  TGI: 6.18 µM
HOP-62 NSCLC
  GI50: 1730 nM
  TGI: 3.64 µM
OVCAR-8 ovarian
  GI50: 1430 nM
  TGI: 2800 nM
IGROV1 ovarian
  GI50: 965 nM
  TGI: 2480 nM
UO-31 renal
  GI50: 1430 nM
  TGI: 2930 nM
NCI/ADR-RES ovarian
  GI50: 1800 nM
  TGI: 4.04 µM
OVCAR-3 ovarian
  GI50: 1180 nM
  TGI: 2860 nM
COLO 205 colon
  GI50: 1190 nM
  TGI: 2720 nM
SR leukemia
  GI50: 1780 nM
  TGI: 4.59 µM
LOX IMVI melanoma
  GI50: 739 nM
  TGI: 1990 nM
SN12C renal
  GI50: 1180 nM
  TGI: 2480 nM
MALME-3M melanoma
  GI50: 509 nM
  TGI: 1820 nM
MDA-MB-468 breast
  GI50: 1030 nM
  TGI: 2320 nM
BT-549 breast
  GI50: 1640 nM
  TGI: 3.06 µM
SW-620 colon
  GI50: 1230 nM
  TGI: 2810 nM
MCF7 breast
  GI50: 1610 nM
  TGI: 3.05 µM
HT29 colon
  GI50: 1100 nM
  TGI: 2450 nM
CCRF-CEM leukemia
  GI50: 1600 nM
  TGI: 3.62 µM
786-0 renal
  GI50: 1470 nM
  TGI: 2840 nM
SF-295 CNS
  GI50: 1430 nM
  TGI: 2820 nM
CAKI-1 renal
  GI50: 1450 nM
  TGI: 2780 nM
PC-3 prostate
  GI50: 1300 nM
  TGI: 2780 nM
HCC-2998 colon
  GI50: 1300 nM
  TGI: 2560 nM
MDA-MB-435
  GI50: 1230 nM
  TGI: 2500 nM
SF-539 CNS
  GI50: 533 nM
  TGI: 1760 nM
MDA-MB-231 breast
  GI50: 919 nM
  TGI: 2140 nM
A498 renal
  GI50: 2540 nM
  TGI: 4.21 µM
SK-MEL-28 melanoma
  GI50: 1630 nM
  TGI: 3000 nM
NCI-H23 lung
  GI50: 1410 nM
  TGI: 2760 nM
SK-MEL-2 melanoma
  GI50: 1470 nM
  TGI: 2930 nM
NCI-H226 lung
  GI50: 1190 nM
  TGI: 3.6 µM
KM12 colon
  GI50: 1660 nM
  TGI: 3.27 µM
SK-OV-3 ovarian
  GI50: 2190 nM
  TGI: 4.56 µM
A549 NSCLC
  GI50: 1300 nM
  TGI: 2600 nM
UACC-257 melanoma
  GI50: 1470 nM
  TGI: 2860 nM
TK-10 renal
  GI50: 1890 nM
  TGI: 3.38 µM
OVCAR-4 ovarian
  GI50: 1040 nM
  TGI: 5.3 µM
SNB-19 CNS
  GI50: 1950 nM
  TGI: 3.63 µM
RXF 393 renal
  GI50: 1100 nM
  TGI: 2490 nM
DU-145 prostate
  GI50: 1530 nM
  TGI: 3.12 µM
